Reference: publication PMC4138887, “Natural Product Polyamines That Inhibit Human Carbonic Anhydrases” (BioMed Research International, 2014)
In brackets after ≈: the same amount, converted by molar mass.

Columns and labels:
hCA XIV = target: T1, hCA XIV (Homo sapiens, UniProt Q9ULX7); test: stopped-flow CO2 hydration CA inhibition assay; format: biochemical; settings: recombinant human CA XIV; stopped-flow CO2 hydrase assay; errors ±5%, three determinations; read-out: K i CA XIV
T1 construct: made in house; host or cells: E. coli
T1 sequence (Q9ULX7 16-337): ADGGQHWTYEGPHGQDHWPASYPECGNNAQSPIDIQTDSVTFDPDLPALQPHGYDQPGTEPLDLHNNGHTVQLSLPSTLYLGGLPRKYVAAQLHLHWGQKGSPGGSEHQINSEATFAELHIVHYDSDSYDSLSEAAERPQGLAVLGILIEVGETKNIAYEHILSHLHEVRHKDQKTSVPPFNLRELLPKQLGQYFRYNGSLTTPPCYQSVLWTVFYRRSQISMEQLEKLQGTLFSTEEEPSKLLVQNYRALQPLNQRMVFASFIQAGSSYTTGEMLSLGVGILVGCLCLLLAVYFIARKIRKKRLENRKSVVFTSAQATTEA
Text: An Applied Photophysics stopped-flow instrument was used for assaying the CA-catalyzed CO2 hydration activity [26]. IC50 values were obtained from dose response curves working at seven different concentrations of test compound; by fitting the curves using PRISM (http://www.graphpad.com/) and nonlinear least squares methods, values represent the mean of at least three different determinations as described by us previously [27]. The inhibition constants (K i) were then derived by using the Cheng-Prusoff equation [28] as follows: K i = IC50/(1 + [S]/K m), where [S] represents the CO2 concentration at which the measurement was carried out and K m is the concentration of substrate at which the enzyme activity is at half maximal.

hCA II = target: T2, hCA II (Homo sapiens, UniProt P00918); test: stopped-flow CO2 hydration CA inhibition assay; format: biochemical; settings: recombinant human CA II; stopped-flow CO2 hydrase assay; errors ±5%, three determinations; read-out: K i CA II
T2 construct: made in house; host or cells: E. coli
Text: (§1) An Applied Photophysics stopped-flow instrument was used for assaying the CA-catalyzed CO2 hydration activity [26]. IC50 values were obtained from dose response curves working at seven different concentrations of test compound; by fitting the curves using PRISM (http://www.graphpad.com/) and nonlinear least squares methods, values represent the mean of at least three different determinations as described by us previously [27]. The inhibition constants (K i) were then derived by using the Cheng-Prusoff equation [28] as follows: K i = IC50/(1 + [S]/K m), where [S] represents the CO2 concentration at which the measurement was carried out and K m is the concentration of substrate at which the enzyme activity is at half maximal. All enzymes used were recombinant, produced in E. coli as reported earlier [29, 30].

hCA IX = target: T3, hCA IX (Homo sapiens, UniProt Q16790); test: stopped-flow CO2 hydration CA inhibition assay; format: biochemical; settings: recombinant human CA IX; stopped-flow CO2 hydrase assay; errors ±5%, three determinations; read-out: K i CA IX
T3 construct: made in house; host or cells: E. coli
Text: as §1

hCA IV = target: T4, hCA IV (Homo sapiens, UniProt P22748); test: stopped-flow CO2 hydration CA inhibition assay; format: biochemical; settings: recombinant human CA IV; stopped-flow CO2 hydrase assay; errors ±5%, three determinations; read-out: K i CA IV
T4 construct: made in house; host or cells: E. coli
T4 sequence (P22748 19-312): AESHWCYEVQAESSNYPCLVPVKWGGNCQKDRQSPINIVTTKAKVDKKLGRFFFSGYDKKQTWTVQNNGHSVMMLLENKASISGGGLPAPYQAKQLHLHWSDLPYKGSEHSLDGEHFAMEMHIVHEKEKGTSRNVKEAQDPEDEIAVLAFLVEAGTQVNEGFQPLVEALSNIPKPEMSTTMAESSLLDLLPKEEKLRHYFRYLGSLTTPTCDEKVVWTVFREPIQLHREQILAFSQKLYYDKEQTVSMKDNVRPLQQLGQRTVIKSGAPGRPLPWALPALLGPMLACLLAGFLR
Text: as §1

Pseudomonas aeruginosa = system: Pseudomonas aeruginosa; design: method as in PMID 22515429; settings: antibacterial, cited from earlier work
hCA I = target: T5, hCA I (Homo sapiens, UniProt P00915); test: stopped-flow CO2 hydration CA inhibition assay; format: biochemical; settings: recombinant human CA I; stopped-flow CO2 hydrase assay; errors ±5%, three determinations; read-out: K i CA I
T5 construct: made in house; host or cells: E. coli
T5 sequence (P00915 whole entry): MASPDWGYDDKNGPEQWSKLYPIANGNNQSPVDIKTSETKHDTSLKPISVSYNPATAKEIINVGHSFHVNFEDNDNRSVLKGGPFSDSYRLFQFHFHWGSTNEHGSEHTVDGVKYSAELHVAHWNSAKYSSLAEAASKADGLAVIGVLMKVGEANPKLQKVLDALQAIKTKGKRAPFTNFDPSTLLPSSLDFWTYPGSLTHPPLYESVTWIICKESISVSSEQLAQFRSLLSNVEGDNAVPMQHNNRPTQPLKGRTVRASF
Text: as §1

hCA XII = target: T6, hCA XII (Homo sapiens, UniProt O43570); test: stopped-flow CO2 hydration CA inhibition assay; format: biochemical; settings: recombinant human CA XII; stopped-flow CO2 hydrase assay; errors ±5%, three determinations; read-out: K i CA XII
T6 construct: made in house; host or cells: E. coli
T6 sequence (O43570 25-354): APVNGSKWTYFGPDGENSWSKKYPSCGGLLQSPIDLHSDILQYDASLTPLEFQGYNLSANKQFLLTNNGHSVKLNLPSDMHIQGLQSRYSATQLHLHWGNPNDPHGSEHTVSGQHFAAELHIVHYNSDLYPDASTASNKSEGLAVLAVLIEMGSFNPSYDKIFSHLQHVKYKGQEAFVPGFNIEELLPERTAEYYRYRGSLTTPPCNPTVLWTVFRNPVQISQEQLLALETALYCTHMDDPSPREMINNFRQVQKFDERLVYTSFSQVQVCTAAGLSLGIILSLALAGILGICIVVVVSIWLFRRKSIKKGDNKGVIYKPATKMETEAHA
Text: as §1

[1] = system: drug sensitive Plasmodium falciparum parasite line (3D7); design: method as in earlier work; settings: drug sensitive parasite line 3D7; read-out: IC50 towards Plasmodium falciparum 3D7; cited from earlier work

Molecule | Ki (hCA XIV) [µM] | Ki (hCA II) [µM] | Ki (hCA IX) [µM] | Ki (hCA IV) [µM] | MIC against Pseudomonas aeruginosa (Pseudomonas aeruginosa) [µM] | IC50 (Pseudomonas aeruginosa; read-out: IC50 against Pseudomonas aeruginosa) [µM] | Ki (hCA I) [µM] | Ki (hCA XII) [µM] | IC50 [1] [µM]
COc1c(Br)cc(/C=C/C(=O)NCCCNCCCCNCCCN)cc1Br [Polyamine 1, ianthelliformisamine A] | 2.12 | 0.41 | 0.2 | 6.72 | 35 (≈ 18.2 µg/mL) | 6.8 | 1.76 | 2.81 | 
COc1c(Br)cc(/C=C/C(=O)NCCCNCCCCN)cc1Br [Polyamine 2, ianthelliformisamine B] | 2.28 | 0.37 | 0.35 | 9.1 |  |  | 0.77 | 3.48 | 
COc1c(Br)cc(/C=C/C(=O)NCCCNCCCCNCCCNC(=O)/C=C/c2cc(Br)c(OC)c(Br)c2)cc1Br [Polyamine 3, ianthelliformisamine C] | 6.96 | 0.35 | 0.27 | 9.08 |  |  | 0.86 | 3.5 | 
O=C(NCCCCNCCCNC(=O)c1ccc(O)c(O)c1)c1ccc(O)c(O)c1 [Polyamine 5, pistillarin] | 1.52 | 0.34 | 0.36 | 7.03 |  |  | 0.79 | 4.21 | 1.9
spermatinamine [Polyamine 4] | 2.72 | 0.48 | 0.34 | > 20 |  |  | 0.85 | > 20 | 0.23
